Results as given in article PMC7144397 (Molecules, 2020).

Molecular target: myotoxic Asp-49 phospholipase A2 (PLA2) from Crotalus durissus cumanensis venom
Test: chromogenic PLA2 assay, […] nm, 96-well plate
Format: biochemical
Conditions: substrate 4-nitro-3-octanoyloxybenzoic acid type (4N3OBA, 20 μL of 10 mM); 10 mM Tris-HCl, 10 mM CaCl2, 100 mM NaCl, pH 8.0; 37 °C; 20 μg PLA2, 30 min pre-incubation; from linear portion of the dose-r

Which IC50 does the source give for `O=[N+]([O-])c1ccc(C(=S)SCc2ccccc2)cc1` [I, Benzyl 4-nitrobenzenecarbodithioate] here?
Its IC50 is 55.6 ± 4.6 µM.
